# Molecular target: T1, Bile salt export pump (Rattus norvegicus, UniProt O70127)
# T1 sequence (O70127 whole entry): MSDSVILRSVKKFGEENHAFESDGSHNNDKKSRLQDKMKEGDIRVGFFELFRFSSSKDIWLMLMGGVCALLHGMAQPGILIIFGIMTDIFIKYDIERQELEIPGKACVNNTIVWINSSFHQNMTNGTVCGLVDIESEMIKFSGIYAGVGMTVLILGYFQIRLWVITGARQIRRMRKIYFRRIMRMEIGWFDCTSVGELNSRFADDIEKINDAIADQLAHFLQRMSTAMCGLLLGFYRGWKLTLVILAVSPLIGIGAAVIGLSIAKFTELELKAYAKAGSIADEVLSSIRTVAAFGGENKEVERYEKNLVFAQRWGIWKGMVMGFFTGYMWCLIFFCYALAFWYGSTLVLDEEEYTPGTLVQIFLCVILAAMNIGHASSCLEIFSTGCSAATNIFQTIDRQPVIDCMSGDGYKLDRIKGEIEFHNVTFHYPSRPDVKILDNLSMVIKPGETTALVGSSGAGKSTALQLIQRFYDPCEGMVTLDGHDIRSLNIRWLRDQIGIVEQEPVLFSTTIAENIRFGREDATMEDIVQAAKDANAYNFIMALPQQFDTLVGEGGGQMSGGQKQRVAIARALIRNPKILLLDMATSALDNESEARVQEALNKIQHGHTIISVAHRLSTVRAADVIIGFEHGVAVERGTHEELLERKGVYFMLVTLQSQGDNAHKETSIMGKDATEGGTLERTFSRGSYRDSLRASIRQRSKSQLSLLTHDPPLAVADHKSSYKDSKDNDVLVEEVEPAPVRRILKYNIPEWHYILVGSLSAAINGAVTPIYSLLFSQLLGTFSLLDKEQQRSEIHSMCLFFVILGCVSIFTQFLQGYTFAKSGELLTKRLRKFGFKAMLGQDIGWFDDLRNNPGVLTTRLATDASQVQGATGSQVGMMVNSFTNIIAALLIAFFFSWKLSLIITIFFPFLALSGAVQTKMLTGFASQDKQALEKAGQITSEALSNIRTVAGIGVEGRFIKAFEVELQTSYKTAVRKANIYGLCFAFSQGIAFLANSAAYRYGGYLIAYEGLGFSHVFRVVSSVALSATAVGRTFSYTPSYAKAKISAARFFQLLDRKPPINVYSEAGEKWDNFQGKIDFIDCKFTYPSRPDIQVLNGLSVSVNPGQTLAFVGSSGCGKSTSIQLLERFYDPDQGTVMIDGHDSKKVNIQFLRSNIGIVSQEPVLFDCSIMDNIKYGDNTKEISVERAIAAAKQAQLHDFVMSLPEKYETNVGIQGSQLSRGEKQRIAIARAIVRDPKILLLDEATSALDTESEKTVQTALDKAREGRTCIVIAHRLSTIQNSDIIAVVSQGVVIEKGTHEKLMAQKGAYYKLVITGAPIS
# Assay: TP_TRANSPORTER: inhibition of Taurocholate uptake in membrane vesicle from Bsep-expressing Sf9-cell
# Assay type: functional, cell membranes
row,Structure (SMILES),Ki
1,CC(C)(C)c1ccc(S(=O)(=O)Nc2nc(-c3ncccn3)nc(OCCO)c2Cc2ccccc2O)cc1 [BOSENTAN M2],8.5 µM
2,COc1ccccc1Oc1c(NS(=O)(=O)c2ccc(C(C)(C)C)cc2)nc(-c2ncccn2)nc1OCCO [BOSENTAN],12 µM

# Source: ChEMBL document CHEMBL2074204, “The endothelin antagonist bosentan inhibits the canalicular bile salt export pump: a potential mechanism for hepatic adverse reactions” (Clin Pharmacol Ther, 2001)
